pIC50: −log10 of the molar value. Calls of active or inactive are those of the source. The calls are words filed in the database; no cut-off is given here.
Tests used:
[1] = biological target: Epidermal growth factor receptor (Homo sapiens, UniProt P00533); assay type: cell-based, A-431
[2] = biological target: T1, Bifunctional dihydrofolate reductase-thymidylate synthase (Toxoplasma gondii, UniProt Q07422); assay: Inhibition of Toxoplasma gondii thymidylate synthase
T1 sequence (Q07422 whole entry): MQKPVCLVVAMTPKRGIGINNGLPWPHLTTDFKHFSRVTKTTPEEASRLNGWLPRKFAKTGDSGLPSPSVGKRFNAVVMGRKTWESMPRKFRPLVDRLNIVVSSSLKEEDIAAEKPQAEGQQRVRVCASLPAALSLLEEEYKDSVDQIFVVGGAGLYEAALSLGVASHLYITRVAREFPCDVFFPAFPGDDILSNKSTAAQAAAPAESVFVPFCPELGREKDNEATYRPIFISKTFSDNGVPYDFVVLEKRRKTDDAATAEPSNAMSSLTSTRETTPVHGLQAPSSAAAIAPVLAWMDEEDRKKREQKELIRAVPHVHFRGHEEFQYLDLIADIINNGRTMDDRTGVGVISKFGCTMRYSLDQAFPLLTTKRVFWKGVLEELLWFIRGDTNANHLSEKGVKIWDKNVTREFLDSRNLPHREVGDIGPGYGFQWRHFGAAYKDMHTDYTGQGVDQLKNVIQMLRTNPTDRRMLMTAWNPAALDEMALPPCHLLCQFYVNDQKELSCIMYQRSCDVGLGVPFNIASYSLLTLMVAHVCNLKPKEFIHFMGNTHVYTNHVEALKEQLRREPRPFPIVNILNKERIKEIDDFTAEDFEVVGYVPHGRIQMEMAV

[3] = biological target: T1, Bifunctional dihydrofolate reductase-thymidylate synthase; assay: Inhibition of Toxoplasma gondii DHFR
Dihydrofolate reductase = biological target: T2, Dihydrofolate reductase (Homo sapiens, UniProt P00374)
T2 sequence (P00374 whole entry): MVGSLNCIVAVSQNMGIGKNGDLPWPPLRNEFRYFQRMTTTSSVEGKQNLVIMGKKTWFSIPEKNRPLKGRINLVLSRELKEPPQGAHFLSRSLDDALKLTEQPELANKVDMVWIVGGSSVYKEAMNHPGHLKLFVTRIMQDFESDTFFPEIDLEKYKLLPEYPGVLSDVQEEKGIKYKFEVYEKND

Thymidylate synthase = Thymidylate synthase (Homo sapiens, UniProt P04818); assay: Inhibition of human thymidylate synthase
Thymidylate synthase, sequence (P04818 whole entry): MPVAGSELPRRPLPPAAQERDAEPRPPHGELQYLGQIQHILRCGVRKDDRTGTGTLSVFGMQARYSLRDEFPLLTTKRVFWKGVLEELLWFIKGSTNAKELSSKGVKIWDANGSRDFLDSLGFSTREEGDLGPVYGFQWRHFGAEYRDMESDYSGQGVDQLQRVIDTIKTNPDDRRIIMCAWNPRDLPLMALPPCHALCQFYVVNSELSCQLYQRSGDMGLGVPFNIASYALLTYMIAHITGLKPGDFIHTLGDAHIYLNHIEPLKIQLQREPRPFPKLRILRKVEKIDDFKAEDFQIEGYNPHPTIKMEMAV

A-431 = assay: Antiproliferative activity against human A431 cells after 48 hrs by CYQUANT assay; assay type: functional, cell-based; conditions: A-431, 48 h
[4] = Inhibition of Escherichia coli thymidylate synthase
[5] = biological target: Vascular endothelial growth factor receptor 2 (Homo sapiens, UniProt P35968); assay type: cell-based, U-251
Vascular endothelial growth factor receptor 2, sequence (P35968 whole entry): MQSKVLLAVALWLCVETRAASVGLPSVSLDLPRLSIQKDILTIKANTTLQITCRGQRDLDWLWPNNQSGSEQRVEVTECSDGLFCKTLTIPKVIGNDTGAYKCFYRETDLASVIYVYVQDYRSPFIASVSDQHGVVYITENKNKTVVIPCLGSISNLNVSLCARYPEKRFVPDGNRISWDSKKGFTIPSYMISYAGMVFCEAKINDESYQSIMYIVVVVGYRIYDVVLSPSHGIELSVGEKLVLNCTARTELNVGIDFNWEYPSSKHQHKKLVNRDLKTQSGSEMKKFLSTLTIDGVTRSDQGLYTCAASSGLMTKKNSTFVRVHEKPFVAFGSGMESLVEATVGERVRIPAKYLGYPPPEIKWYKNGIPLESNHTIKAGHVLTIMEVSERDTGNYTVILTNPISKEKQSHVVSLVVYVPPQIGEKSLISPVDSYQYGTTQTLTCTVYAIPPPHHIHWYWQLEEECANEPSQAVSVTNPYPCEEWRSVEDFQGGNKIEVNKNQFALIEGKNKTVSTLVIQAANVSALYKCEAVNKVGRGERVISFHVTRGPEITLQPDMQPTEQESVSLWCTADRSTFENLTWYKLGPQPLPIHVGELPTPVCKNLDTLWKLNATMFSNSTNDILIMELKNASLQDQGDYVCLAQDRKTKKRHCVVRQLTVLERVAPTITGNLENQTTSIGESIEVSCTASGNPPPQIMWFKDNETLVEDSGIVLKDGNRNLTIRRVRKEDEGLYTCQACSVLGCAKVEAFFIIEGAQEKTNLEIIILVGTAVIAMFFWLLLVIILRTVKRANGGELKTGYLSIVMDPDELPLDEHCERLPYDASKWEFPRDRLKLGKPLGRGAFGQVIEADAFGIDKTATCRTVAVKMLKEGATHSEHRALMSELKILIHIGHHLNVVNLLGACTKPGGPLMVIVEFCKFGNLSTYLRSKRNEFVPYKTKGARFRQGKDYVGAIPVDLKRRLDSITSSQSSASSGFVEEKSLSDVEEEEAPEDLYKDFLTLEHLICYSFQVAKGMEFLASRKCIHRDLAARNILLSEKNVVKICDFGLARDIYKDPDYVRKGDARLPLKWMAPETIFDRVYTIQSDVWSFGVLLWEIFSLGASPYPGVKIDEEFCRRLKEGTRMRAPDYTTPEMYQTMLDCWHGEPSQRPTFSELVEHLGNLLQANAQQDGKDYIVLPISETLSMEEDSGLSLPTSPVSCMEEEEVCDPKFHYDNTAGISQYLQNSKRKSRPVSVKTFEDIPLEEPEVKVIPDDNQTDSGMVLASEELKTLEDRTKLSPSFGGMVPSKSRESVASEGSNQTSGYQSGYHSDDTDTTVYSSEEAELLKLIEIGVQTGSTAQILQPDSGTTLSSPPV

[6] = Antiangiogenic activity in VEGF/bFGF-stimulated chicken embryo after 48 hrs by CAM assay; assay type: functional, Gallus gallus
[7] = biological target: Platelet-derived growth factor receptor beta (Homo sapiens, UniProt P09619); assay: Inhibition of PDGFRbeta in human SF539 cells pretreated for 60 mins measured after 10 mins by ELISA
Platelet-derived growth factor receptor beta, sequence (P09619 whole entry): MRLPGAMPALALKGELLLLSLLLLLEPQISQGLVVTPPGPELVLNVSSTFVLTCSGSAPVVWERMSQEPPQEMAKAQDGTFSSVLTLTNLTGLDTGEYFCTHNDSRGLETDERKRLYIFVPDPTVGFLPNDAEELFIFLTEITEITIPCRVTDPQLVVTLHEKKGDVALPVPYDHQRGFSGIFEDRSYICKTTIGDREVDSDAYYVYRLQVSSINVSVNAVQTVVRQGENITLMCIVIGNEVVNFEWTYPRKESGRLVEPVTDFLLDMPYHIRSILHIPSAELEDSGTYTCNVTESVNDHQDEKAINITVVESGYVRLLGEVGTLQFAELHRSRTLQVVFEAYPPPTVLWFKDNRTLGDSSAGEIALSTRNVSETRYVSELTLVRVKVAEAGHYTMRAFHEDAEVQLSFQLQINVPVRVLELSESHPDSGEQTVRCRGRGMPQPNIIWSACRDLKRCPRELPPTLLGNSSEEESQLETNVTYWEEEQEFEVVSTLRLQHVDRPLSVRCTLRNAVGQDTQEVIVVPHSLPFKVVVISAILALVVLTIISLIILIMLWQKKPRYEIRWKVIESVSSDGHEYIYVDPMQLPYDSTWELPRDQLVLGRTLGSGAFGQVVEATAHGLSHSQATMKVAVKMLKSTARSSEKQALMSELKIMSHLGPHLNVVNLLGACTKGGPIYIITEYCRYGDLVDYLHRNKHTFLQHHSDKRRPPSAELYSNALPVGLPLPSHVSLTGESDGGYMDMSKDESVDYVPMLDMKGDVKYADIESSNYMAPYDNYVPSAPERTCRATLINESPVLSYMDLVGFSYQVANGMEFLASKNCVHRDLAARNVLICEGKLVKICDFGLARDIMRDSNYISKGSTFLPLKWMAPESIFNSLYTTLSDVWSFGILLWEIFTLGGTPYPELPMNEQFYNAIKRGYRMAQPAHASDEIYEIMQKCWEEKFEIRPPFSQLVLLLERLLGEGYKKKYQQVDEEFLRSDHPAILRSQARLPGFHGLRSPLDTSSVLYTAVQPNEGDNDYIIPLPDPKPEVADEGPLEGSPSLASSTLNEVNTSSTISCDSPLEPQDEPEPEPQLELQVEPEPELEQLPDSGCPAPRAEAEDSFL

[8] = biological target: T3, Dihydroorotate dehydrogenase (Plasmodium falciparum, UniProt Q54A96); assay: Inhibition of Plasmodium falciparum DHODH
T3 sequence (Q54A96 whole entry): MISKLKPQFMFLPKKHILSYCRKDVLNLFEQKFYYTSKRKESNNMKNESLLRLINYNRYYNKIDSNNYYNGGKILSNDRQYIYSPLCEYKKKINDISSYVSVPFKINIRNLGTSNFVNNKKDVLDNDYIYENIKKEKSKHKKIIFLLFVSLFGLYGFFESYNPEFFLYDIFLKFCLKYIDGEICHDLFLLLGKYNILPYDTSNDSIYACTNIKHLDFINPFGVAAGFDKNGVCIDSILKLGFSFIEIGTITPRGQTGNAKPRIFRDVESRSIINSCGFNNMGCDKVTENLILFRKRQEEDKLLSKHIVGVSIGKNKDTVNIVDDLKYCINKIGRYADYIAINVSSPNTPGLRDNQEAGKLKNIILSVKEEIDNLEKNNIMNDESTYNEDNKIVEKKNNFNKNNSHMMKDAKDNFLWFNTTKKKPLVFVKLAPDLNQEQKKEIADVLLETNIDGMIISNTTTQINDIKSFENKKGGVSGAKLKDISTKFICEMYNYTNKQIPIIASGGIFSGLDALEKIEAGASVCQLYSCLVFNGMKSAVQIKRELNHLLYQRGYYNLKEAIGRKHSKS

[9] = biological target: Dihydroorotate dehydrogenase (quinone), mitochondrial (Homo sapiens, UniProt Q02127); assay: Inhibition of human DHODH
Dihydroorotate dehydrogenase (quinone), mitochondrial, sequence (Q02127 whole entry): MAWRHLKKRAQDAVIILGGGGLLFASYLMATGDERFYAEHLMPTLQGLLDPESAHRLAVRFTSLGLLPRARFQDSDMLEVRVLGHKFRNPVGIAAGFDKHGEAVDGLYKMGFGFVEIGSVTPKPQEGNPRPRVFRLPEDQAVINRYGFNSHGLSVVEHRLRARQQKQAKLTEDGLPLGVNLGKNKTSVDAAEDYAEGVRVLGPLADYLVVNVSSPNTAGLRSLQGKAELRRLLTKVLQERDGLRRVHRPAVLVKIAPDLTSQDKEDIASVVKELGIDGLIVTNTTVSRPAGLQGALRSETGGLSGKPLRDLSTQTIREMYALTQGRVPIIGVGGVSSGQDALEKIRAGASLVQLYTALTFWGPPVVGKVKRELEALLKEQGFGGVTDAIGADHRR

B16-F10 [10] = assay: Antitumor activity against mouse B16F10 cells allografted in NCr nu/nu mouse assessed as tumor growth reduction at 35 mg/kg, ip administered three times weekly for 2 weeks
B16-F10 [11] = assay: Antitumor activity against mouse B16F10 cells allografted in NCr nu/nu mouse assessed as decrease in tumor metastasis at 35 mg/kg, ip administered three times weekly for 2 weeks
B16-F10 [12] = assay: Antitumor activity against mouse B16F10 cells allografted in NCr nu/nu mouse assessed as inhibition of tumor angiogenesis at 35 mg/kg, ip administered three times weekly for 2 weeks
Mus musculus [13] = assay: Toxicity in NCr nu/nu mouse allografted with mouse B16F10 cells assessed as weight loss at 35 mg/kg, ip administered three times a week for 4 weeks; assay type: organism-based, B16-F10; design: dose 35 mg/kg, route intraperitoneal; conditions: in vivo, 672 h
MCF7 = assay: cells; conditions: Homo sapiens
COLO 205 = assay: cells; conditions: Homo sapiens
PC-3 = assay: cells; conditions: Homo sapiens
T47D = assay: cells; conditions: Homo sapiens
UACC-62 = assay: cells; conditions: Homo sapiens
U-251 = assay: cells; conditions: Homo sapiens
HCT-15 = assay: cells; conditions: Homo sapiens
SK-MEL-28 = assay: cells; conditions: Homo sapiens
ACHN = assay: cells; conditions: Homo sapiens
OVCAR-8 = assay: cells; conditions: Homo sapiens
DU-145 = assay: cells; conditions: Homo sapiens
HOP-92 = assay: cells; conditions: Homo sapiens
M14 = assay: cells; conditions: Homo sapiens
NCI-H226 = assay: cells; conditions: Homo sapiens
RXF 393 = assay: cells; conditions: Homo sapiens
IGROV-1 = assay: cells; conditions: Homo sapiens
SF-539 = assay: cells; conditions: Homo sapiens
A498 = assay: cells; conditions: Homo sapiens
MDA-MB-435 = assay: cells; conditions: Homo sapiens
K562 = assay: cells; conditions: Homo sapiens
cells [14] = conditions: Homo sapiens, NCI/ADR-RES
HL-60(TB) = assay: cells; conditions: Homo sapiens
SN12C = assay: cells; conditions: Homo sapiens
HCT-116 = assay: cells; conditions: Homo sapiens
HOP-62 = assay: cells; conditions: Homo sapiens
LOX IMVI = assay: cells; conditions: Homo sapiens
UO-31 = assay: cells; conditions: Homo sapiens
KM12 = assay: cells; conditions: Homo sapiens
TK-10 = assay: cells; conditions: Homo sapiens
SW-620 = assay: cells; conditions: Homo sapiens
SNB-19 = assay: cells; conditions: Homo sapiens
OVCAR-3 = assay: cells; conditions: Homo sapiens
NCI-H322M = assay: cells; conditions: Homo sapiens
NCI-H23 = assay: cells; conditions: Homo sapiens
NCI-H460 = assay: cells; conditions: Homo sapiens
SF-295 = assay: cells; conditions: Homo sapiens
CAKI-1 = assay: cells; conditions: Homo sapiens
SK-OV-3 = assay: cells; conditions: Homo sapiens
NCI-H522 = assay: cells; conditions: Homo sapiens
786-0 = assay: cells; conditions: Homo sapiens
MOLT-4 = assay: cells; conditions: Homo sapiens
cells [15] = conditions: Homo sapiens, Hs-578T
CCRF-CEM = assay: cells; conditions: Homo sapiens
Mus musculus [16] = assay: Toxicity in NCr nu/nu mouse allografted with mouse B16F10 cells at 35 mg/kg, ip administered three times a week for 4 weeks; assay type: organism-based, B16-F10; design: dose 35 mg/kg, route intraperitoneal; conditions: in vivo, 672 h
SK-MEL-5 = assay: cells; conditions: Homo sapiens
UACC-257 = assay: cells; conditions: Homo sapiens
EKVX = assay: cells; conditions: Homo sapiens
MDA-MB-231 = assay: cells; conditions: Homo sapiens
BT-549 = assay: cells; conditions: Homo sapiens
Malme-3M = assay: cells; conditions: Homo sapiens
SK-MEL-2 = assay: cells; conditions: Homo sapiens
SF-268 = assay: cells; conditions: Homo sapiens
A549 = assay: cells; conditions: Homo sapiens
SR = assay: cells; conditions: Homo sapiens
OVCAR-4 = assay: cells; conditions: Homo sapiens
RPMI-8226 = assay: cells; conditions: Homo sapiens
SNB-75 = assay: cells; conditions: Homo sapiens

Epidermal growth factor receptor, sequence (P00533 whole entry): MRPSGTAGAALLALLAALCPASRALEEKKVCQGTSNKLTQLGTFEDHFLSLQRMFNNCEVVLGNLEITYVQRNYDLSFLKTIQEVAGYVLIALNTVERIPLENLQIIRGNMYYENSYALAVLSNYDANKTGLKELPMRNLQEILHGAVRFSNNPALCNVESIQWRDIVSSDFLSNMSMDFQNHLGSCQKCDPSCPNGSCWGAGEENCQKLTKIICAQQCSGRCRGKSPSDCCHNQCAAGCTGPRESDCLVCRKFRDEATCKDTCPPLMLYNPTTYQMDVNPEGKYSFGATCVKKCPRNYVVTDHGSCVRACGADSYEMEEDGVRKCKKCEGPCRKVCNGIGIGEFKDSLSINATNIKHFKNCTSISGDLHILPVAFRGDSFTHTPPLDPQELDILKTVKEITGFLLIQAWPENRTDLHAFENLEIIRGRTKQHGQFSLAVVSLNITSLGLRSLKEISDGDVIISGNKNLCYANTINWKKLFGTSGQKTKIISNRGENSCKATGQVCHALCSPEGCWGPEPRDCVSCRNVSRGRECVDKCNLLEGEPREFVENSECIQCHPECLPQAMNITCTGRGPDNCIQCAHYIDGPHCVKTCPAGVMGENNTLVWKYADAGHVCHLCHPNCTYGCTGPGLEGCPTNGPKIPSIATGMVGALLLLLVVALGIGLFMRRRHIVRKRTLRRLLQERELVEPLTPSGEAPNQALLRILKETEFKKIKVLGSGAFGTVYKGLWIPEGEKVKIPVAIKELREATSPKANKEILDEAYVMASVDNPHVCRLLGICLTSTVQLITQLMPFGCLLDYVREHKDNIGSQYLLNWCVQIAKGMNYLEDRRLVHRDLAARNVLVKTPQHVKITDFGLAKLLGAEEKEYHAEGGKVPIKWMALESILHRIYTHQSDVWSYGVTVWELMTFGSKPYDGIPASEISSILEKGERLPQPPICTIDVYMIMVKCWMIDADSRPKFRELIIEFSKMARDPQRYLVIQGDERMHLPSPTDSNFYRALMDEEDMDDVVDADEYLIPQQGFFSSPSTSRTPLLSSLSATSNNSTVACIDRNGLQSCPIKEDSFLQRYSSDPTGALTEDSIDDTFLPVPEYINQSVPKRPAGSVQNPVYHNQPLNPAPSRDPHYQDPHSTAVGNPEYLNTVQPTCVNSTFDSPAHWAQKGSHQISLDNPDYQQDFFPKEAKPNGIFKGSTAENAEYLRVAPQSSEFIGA

For Nc1nc2c(c(Nc3ccc(F)c(Cl)c3)n1)-c1ccccc1C2, the pIC50 [1] was < 3.70, the pIC50 [2] was < 4.89 and the pIC50 [3] was < 4.80. The pIC50 (Dihydrofolate reductase) was < 4.80, the pIC50 (Thymidylate synthase) was < 4.89 and the pIC50 (A-431) was 3.80. For the same molecule, the pIC50 [4] was < 4.89.
For CC(C)c1ccccc1Nc1nc(N)nc2c1-c1ccccc1C2, the pIC50 [1] was < 3.70, the pIC50 [5] was < 3.70 and the pIC50 [6] was 5.67. For the same molecule, the pIC50 (A-431) was 3.90.
In the case of Nc1nc2c(c(Nc3cccc(Cl)c3)n1)-c1ccccc1C2, the pIC50 [7] was < 3.30 and the pIC50 (A-431) was 3.63.
For COc1cccc(Nc2nc(N)nc3c2-c2ccccc2C3)c1, the pIC50 [1] was < 3.70, the pIC50 [8] was < 3.70 and the pIC50 [9] was < 3.70. For the same molecule, the pIC50 (A-431) was 4.86.
With Nc1nc2c(c(Nc3ccc(Cl)cc3F)n1)-c1ccccc1C2 the pIC50 [8] was < 3.70, the pIC50 [2] was < 4.89 and the pIC50 [3] was < 4.80. For the same molecule, the pIC50 (Dihydrofolate reductase) was < 4.80, the pIC50 [9] was < 3.70 and the pIC50 (Thymidylate synthase) was < 4.89. The pIC50 (A-431) was 5.01 and the pIC50 [4] was < 4.89.
With Cc1[nH]c(/C=C2\C(=O)Nc3ccccc32)c(C)c1CCC(=O)O the “growth inhibition (GI)” value (B16-F10 [10]) was “Active”, the Activity (B16-F10 [11]) was “Active” and the Activity (B16-F10 [12]) was “Active”.
In the case of Nc1nc2c(c(Nc3ccc(Cl)cc3)n1)-c1ccccc1C2, the Activity (Mus musculus [13]) was “Non-toxic”, the GI50 (MCF7) was 73.4 nM and the GI50 (COLO 205) was 638 nM. It also gave a GI50 (PC-3) of 715 nM, a GI50 (T47D) of 2900 nM and a GI50 (UACC-62) of 641 nM. It also gave a GI50 (U-251) of 184 nM, a GI50 (HCT-15) of 434 nM and a GI50 (SK-MEL-28) of 1510 nM. The GI50 (ACHN) was 3420 nM, the GI50 (OVCAR-8) was 216 nM and the GI50 (DU-145) was 212 nM. The pIC50 [8] was < 3.70, the GI50 (HOP-92) was 18100 nM and the GI50 (M14) was 431 nM. It also gave a GI50 (NCI-H226) of 2140 nM, a GI50 (RXF 393) of 2910 nM and a GI50 (IGROV-1) of 287 nM. The GI50 (SF-539) was 381 nM, the GI50 (A498) was 2490 nM and the GI50 (MDA-MB-435) was 554 nM. The pIC50 [2] was < 4.85, the GI50 (K562) was 366 nM and the GI50 (cells [14]) was 787 nM. The GI50 (HL-60(TB)) was 150 nM, the pIC50 [3] was < 4.80 and the GI50 (SN12C) was 189 nM. The GI50 (HCT-116) was 38.1 nM, the “growth inhibition (GI)” value (B16-F10 [10]) was “Active” and the GI50 (HOP-62) was 654 nM. The GI50 (LOX IMVI) was 308 nM, the GI50 (UO-31) was 790 nM and the GI50 (KM12) was 330 nM. For the same molecule, the GI50 (TK-10) was 2150 nM, the pIC50 [5] was < 3.70 and the GI50 (SW-620) was 63 nM. It also gave a GI50 (SNB-19) of 113 nM, a GI50 (OVCAR-3) of 216 nM and a GI50 (NCI-H322M) of 1350 nM. For the same molecule, the GI50 (NCI-H23) was 565 nM, the GI50 (NCI-H460) was 19.3 nM and the GI50 (SF-295) was 547 nM. The pIC50 (Dihydrofolate reductase) was < 4.80, the GI50 (CAKI-1) was 1080 nM and the GI50 (SK-OV-3) was 2090 nM. For the same molecule, the GI50 (NCI-H522) was 622 nM, the GI50 (786-0) was 514 nM and the GI50 (MOLT-4) was 66.1 nM. For the same molecule, the pIC50 [9] was < 3.70, the GI50 (cells [15]) was 2220 nM and the Activity (B16-F10 [11]) was “inactive”. For the same molecule, the GI50 (CCRF-CEM) was 31.2 nM, the pIC50 (Thymidylate synthase) was < 4.85 and the pIC50 (A-431) was 5.01. For the same molecule, the Activity (Mus musculus [16]) was “Non-toxic”, the GI50 (SK-MEL-5) was 513 nM and the GI50 (UACC-257) was 84.5 nM. It also gave a GI50 (EKVX) of 2710 nM, a GI50 (MDA-MB-231) of 641 nM and a GI50 (BT-549) of 2830 nM. The Activity (B16-F10 [12]) was “Active”, the GI50 (Malme-3M) was > 10000 nM and the GI50 (SK-MEL-2) was 558 nM. For the same molecule, the GI50 (SF-268) was 86.2 nM, the GI50 (A549) was 43.4 nM and the GI50 (SR) was 484 nM. For the same molecule, the pIC50 [4] was < 4.85, the GI50 (OVCAR-4) was 2090 nM and the GI50 (RPMI-8226) was 489 nM. For the same molecule, the GI50 (SNB-75) was 5030 nM.

— ChEMBL document CHEMBL2046359, “Novel tricyclic indeno[2,1-d]pyrimidines with dual antiangiogenic and cytotoxic activities as potent antitumor agents” (Bioorg Med Chem, 2012)
